Measurements published in ChEMBL document CHEMBL3808316, “Design, synthesis and biological evaluation of novel tetrahydroisoquinoline quaternary derivatives as peripheral κ-opioid receptor agonists” (Bioorg Med Chem, 2016).

Legend:
[1] = test system: Mus musculus; assay: Sedative activity in sc dosed Kunming mouse assessed as crossing number at 50 ug/kg after 45 mins by open field test (reference value: 155 +/- 34); assay type: ADME, organism-based; details: in vivo, 0.05 mg/kg, 0.75 h
[2] = test system: Mus musculus; assay: Sedative activity in sc dosed Kunming mouse assessed as crossing number at 100 ug/kg after 45 mins by open field test (reference value: 155 +/- 34); assay type: ADME, organism-based; details: in vivo, 0.1 mg/kg, 0.75 h
[3] = test system: Mus musculus; assay: Sedative activity in sc dosed Kunming mouse assessed as crossing number at 200 ug/kg after 45 mins by open field test (reference value: 155 +/- 34); assay type: ADME, organism-based; details: in vivo, 0.2 mg/kg, 0.75 h
[4] = test system: Mus musculus; assay: Potency index, ratio of antinociceptive ED50 for U50488H to antinociceptive ED50 for test compound in ip dosed mouse after 20 mins; assay type: functional
[5] = molecular target: Mu-type opioid receptor (Rattus norvegicus) (UniProt P33535); assay: Displacement of [3H]diprenorphine from rat mu opioid receptor expressed in CHO cell membranes at 10^-5 M after 30 mins by liquid scintillation counting analysis
[6] = molecular target: Mu-type opioid receptor (Rattus norvegicus) (UniProt P33535); assay: Displacement of [3H]diprenorphine from rat mu opioid receptor expressed in CHO cell membranes at 10^-6 M after 30 mins by liquid scintillation counting analysis
[7] = molecular target: T1, Kappa-type opioid receptor (Homo sapiens, UniProt P41145); assay: Displacement of [3H]diprenorphine from human kappa opioid receptor expressed in CHO cell membranes at 10^-5 M after 30 mins by liquid scintillation counting analysis
[8] = molecular target: T1, Kappa-type opioid receptor; assay: Displacement of [3H]diprenorphine from human kappa opioid receptor expressed in CHO cell membranes at 10^-6 M after 30 mins by liquid scintillation counting analysis
[9] = molecular target: T1, Kappa-type opioid receptor; assay: Displacement of [3H]diprenorphine from human kappa opioid receptor expressed in CHO cell membranes after 30 mins by liquid scintillation counting analysis
[10] = test system: Mus musculus; assay: Antinociceptive activity in ip dosed mouse assessed as acetic acid induced writhing administered 30 mins prior to acetic acid challenge measured for 20 mins; assay type: functional
[11] = test system: Mus musculus; assay: Sedative activity in sc dosed Kunming mouse assessed as […] after 20 mins by rotation test; assay type: ADME, organism-based; details: in vivo
[12] = test system: Mus musculus; assay: Peripheral restriction index, ratio of sedative ED50 in sc dosed Kunming mouse to antinociceptive ED50 in ip dosed mouse
[13] = test system: Mus musculus; assay: Sedative activity in sc dosed Kunming mouse assessed as center square duration time at 50 ug/kg after 45 mins by open field test (reference value: 13.2 +/- 3.1 secs); assay type: ADME, organism-based; details: in vivo, 0.05 mg/kg, 0.75 h
[14] = test system: Mus musculus; assay: Sedative activity in sc dosed Kunming mouse assessed as center square duration time at 100 ug/kg after 45 mins by open field test (reference value: 13.2 +/- 3.1 secs); assay type: ADME, organism-based; details: in vivo, 0.1 mg/kg, 0.75 h
[15] = test system: Mus musculus; assay: Sedative activity in sc dosed Kunming mouse assessed as center square duration time at 200 ug/kg after 45 mins by open field test (reference value: 13.2 +/- 3.1 secs); assay type: ADME, organism-based; details: in vivo, 0.2 mg/kg, 0.75 h
[16] = test system: Mus musculus; assay: Sedative activity in sc dosed Kunming mouse assessed as center square duration distance at 50 ug/kg after 45 mins by open field test (reference value: 1.77 +/- 0.81 m); assay type: ADME, organism-based; details: in vivo, 0.05 mg/kg, 0.75 h
[17] = test system: Mus musculus; assay: Sedative activity in sc dosed Kunming mouse assessed as center square duration distance at 100 ug/kg after 45 mins by open field test (reference value: 1.77 +/- 0.81 m); assay type: ADME, organism-based; details: in vivo, 0.1 mg/kg, 0.75 h
[18] = test system: Mus musculus; assay: Sedative activity in sc dosed Kunming mouse assessed as center square duration distance at 200 ug/kg after 45 mins by open field test (reference value: 1.77 +/- 0.81 m); assay type: ADME, organism-based; details: in vivo, 0.2 mg/kg, 0.75 h
[19] = test system: Mus musculus; assay: Sedative activity in sc dosed Kunming mouse assessed as crossing number at 25 ug/kg after 45 mins by open field test (reference value: 155 +/- 34); assay type: ADME, organism-based; details: in vivo, 0.025 mg/kg, 0.75 h
[20] = Selectivity ratio of Ki for rat mu opioid receptor to Ki for human kappa opioid receptor
[21] = test system: Mus musculus; assay: Sedative activity in sc dosed Kunming mouse assessed as center square duration time at 25 ug/kg after 45 mins by open field test (reference value: 13.2 +/- 3.1 secs); assay type: ADME, organism-based; details: in vivo, 0.025 mg/kg, 0.75 h
[22] = test system: Mus musculus; assay: Sedative activity in sc dosed Kunming mouse assessed as center square duration distance at 25 ug/kg after 45 mins by open field test (reference value: 1.77 +/- 0.81 m); assay type: ADME, organism-based; details: in vivo, 0.025 mg/kg, 0.75 h

Chain of Mu-type opioid receptor (Rattus norvegicus) (P33535 whole entry): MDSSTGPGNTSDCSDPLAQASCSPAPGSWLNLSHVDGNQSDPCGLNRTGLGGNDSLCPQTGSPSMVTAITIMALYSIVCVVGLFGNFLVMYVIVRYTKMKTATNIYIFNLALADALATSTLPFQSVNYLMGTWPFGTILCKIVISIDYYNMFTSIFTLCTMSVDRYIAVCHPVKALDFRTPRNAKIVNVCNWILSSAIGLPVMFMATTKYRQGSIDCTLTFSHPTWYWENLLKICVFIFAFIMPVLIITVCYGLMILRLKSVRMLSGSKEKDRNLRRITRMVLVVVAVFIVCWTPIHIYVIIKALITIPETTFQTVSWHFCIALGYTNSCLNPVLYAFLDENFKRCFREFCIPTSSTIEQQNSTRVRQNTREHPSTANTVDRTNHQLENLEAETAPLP
T1 sequence (P41145 whole entry): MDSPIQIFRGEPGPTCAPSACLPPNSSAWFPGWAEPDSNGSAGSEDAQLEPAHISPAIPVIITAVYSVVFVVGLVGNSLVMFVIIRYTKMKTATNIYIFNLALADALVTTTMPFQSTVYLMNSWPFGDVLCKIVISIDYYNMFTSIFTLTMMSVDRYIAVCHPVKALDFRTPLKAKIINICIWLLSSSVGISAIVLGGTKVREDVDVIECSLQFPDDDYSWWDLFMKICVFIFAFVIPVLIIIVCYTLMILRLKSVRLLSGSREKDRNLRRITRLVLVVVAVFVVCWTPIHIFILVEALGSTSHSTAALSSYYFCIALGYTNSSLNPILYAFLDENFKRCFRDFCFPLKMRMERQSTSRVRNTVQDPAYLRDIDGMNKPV

| inhibition [5] | inhibition [6] | inhibition [7] | inhibition [8] | Structure (SMILES) | Ki [9] | further results |
| --- | --- | --- | --- | --- | --- | --- |
| 0% | 0% | 8.6% | 0% | COc1ccc2c(c1)C(C[N+]1(C)CCCC1)N(C(=O)C1CC(=O)c3ccc(Cl)cc31)CC2 (stereo not drawn) |  |  |
| 9.8% | 0% | 83% | 3.9% | COc1ccc(C[N+]2(CC3c4ccccc4CCN3C(=O)C3CC(=O)c4ccc(Cl)cc43)CCCC2)cc1 (stereo not drawn) |  |  |
| 0% | 0% | 89.1% | 31.9% | CC[N+]1(CC2c3ccccc3CCN2C(=O)C2CC(=O)c3ccc(Cl)cc32)CCCC1 (stereo not drawn) |  |  |
| 9.8% | 4% | 85.5% | 50% | COc1ccc2c(c1)CCN(C(=O)C1CC(=O)c3ccc(Cl)cc31)C2C[N+]1(C)CCCC1 (stereo not drawn) |  |  |
| 10.4% | 0% | 31.9% | 12.1% | O=C1CC(C(=O)N2CCc3ccccc3C2C[N+]2(Cc3ccc(Cl)cc3Cl)CCCC2)c2cc(Cl)ccc21 (stereo not drawn) |  |  |
| 0% | 0% | 86% | 43.1% | O=C1CC(C(=O)N2CCc3ccccc3C2C[N+]2(Cc3ccccc3)CCCC2)c2cc(Cl)ccc21 (stereo not drawn) |  |  |
| 26.5% | 8.9% | 97.4% | 86% | C[N+]1(CC2c3cc(F)ccc3CCN2C(=O)C2CC(=O)c3ccc(Cl)cc32)CCCC1 (stereo not drawn) | 138 nM |  |
| 0% | 0% | 83.7% | 10.8% | C[N+]1(CC2c3ccccc3CCN2C(=O)C2CC(=O)c3ccc(Cl)cc32)CCCC1 (stereo not drawn) | > 10000 nM |  |

Continued, molecule first:

| Structure (SMILES) | inhibition [5] | inhibition [6] | inhibition [7] | inhibition [8] | Ki [9] | further results |
| --- | --- | --- | --- | --- | --- | --- |
| CCCC[N+]1(CC2c3ccccc3CCN2C(=O)C2CC(=O)c3ccc(Cl)cc32)CCCC1.[I-] (stereo not drawn) | 62.4% | 28.8% | 100% | 100% | 0.94 nM | Activity [1]: 153; Activity [2]: 138; Activity [3]: 91; Ratio ED50 [4]: 40; ED50 [10]: 0.022 mg/kg; ED50 [11]: 0.24 mg/kg; Ratio ED50 [12]: 10.2; Time [13]: 17.4 s; Time [14]: 19.1 s; Time [15]: 27.4 s; Activity [16]: 1.02 m; Activity [17]: 1.92 m; Activity [18]: 1.93 m |
| C=CC[N+]1(CC2c3ccccc3CCN2C(=O)C2CC(=O)c3ccc(Cl)cc32)CCCC1 (stereo not drawn) | 56.5% | 37.4% | 100% | 100% | 1.86 nM |  |
| O=C1CC(C(=O)N2CCc3ccccc3C2C[N+]2(Cc3ccc(Cl)cc3)CCCC2)c2cc(Cl)ccc21 (stereo not drawn) | 10% | 0% | 89.3% | 31.3% |  |  |
| O=C1CC(C(=O)N2CCc3ccccc3C2C[N+]2(CC3CC3)CCCC2)c2cc(Cl)ccc21 (stereo not drawn) | 48% | 29.2% | 100% | 98.8% | 3.56 nM |  |
| O=C1CC(C(=O)N2CCc3ccccc3C2CN2CCCC2)c2cc(Cl)ccc21 (stereo not drawn) |  |  |  |  | 0.033 nM | Activity [19]: 71; Ratio Ki [20]: 21.1; ED50 [10]: 0.000406 mg/kg; ED50 [11]: 0.000568 mg/kg; Ratio ED50 [12]: 1.4; Time [21]: 27.1 s; Activity [22]: 1.21 m |
| O=C1CC(C(=O)N2CCc3ccccc3C2C[N+]2(Cc3ccc(F)cc3)CCCC2)c2cc(Cl)ccc21 (stereo not drawn) | 0% | 0% | 13.1% | 0% |  |  |
| C[N+]1(CC2c3ccc(O)cc3CCN2C(=O)C2CC(=O)c3ccc(Cl)cc32)CCCC1 (stereo not drawn) | 34.5% | 8.2% | 87.7% | 67.3% | 231 nM |  |
